For one data set, the system named is GP2D. The data set is described as follows: Cell proliferation assay (CellTiterGlo), GP2D. It counts as cell-based. As to conditions: Homo sapiens, 72 hours. The procedure:
(§1) A cell proliferation assay was used to evaluate inhibition by exemplary compounds. Proliferation assays used human tissue derived cancer cell lines, for example, AsPC-1 (Cobioer, CBP60546), GP2D (Cobioer, CBP60683), NCI-H358 (Cobioer, CBP60544), NCI-H727 (Cobioer, CBP60182), MKN-1 (Cobioer, CBP60486), HCT116 (ATCC, CCL-247), and HT-29 (Cobioer, CBP60011). Signal reflecting cell proliferation was detected with the CellTiterGlo kit (Promega, G7573).
(§2) Cells were cultured in the growth phase and 3×10^3 cells per well were plated in a 96-well plate (Greiner, 655090). Cells were incubated 24 hours at 37° C. and 5% carbon dioxide in a humidity chamber. Serially diluted exemplary compounds were added to the plate which was then incubated for another 72 hours. Plates were brought to room temperature and an equal volume of CellTiterGlo reagent was added. After 10 minutes incubation at room temperature to stabilize the signal, the luminescent signal was measured on the VICTOR Nivo multimode plate reader according to the manufacturer's instructions. The signal was converted to percent inhibition using the following formula: […]
(§3) (where the “Maximum Signal” are wells containing DMSO without inhibitor; the “Minimum Signal” are signal of wells recorded at Day 0 prior to commencement of the experiment; the “Test compound signal” are wells containing inhibitor at established concentrations).
(§4) IC50 was determined by fitting percent inhibition at each inhibitor concentration to the four-parameter nonlinear logistic equation using GraphPad Prism. IC50 (nM) values of selected compounds are depicted in Table 4. “-”: means without measuring; and “ND” means not detected.
Background: ATP-based viability assays read luminescence as a measure of living cells.

The test system of the next data set is NCI-H358. The data set is described as follows: Cell proliferation assay (CellTiterGlo), NCI-H358. In kind it is cell-based. The settings on record: Homo sapiens, NCI-H358, 72 hours. The procedure: as §1, §2, §3, §4
In the next data set the test system is NCI-H727. The data set is described as follows: Cell proliferation assay (CellTiterGlo), NCI-H727. It counts as cell-based. The settings on record: Homo sapiens, NCI-H727, 72 hours. On the procedure: as §1, §2, §3, §4
A further data set relates to MKN-1. The data set is described as follows: Cell proliferation assay (CellTiterGlo), MKN-1. In kind it is cell-based. As to conditions: Homo sapiens, MKN-1, 72 hours. The procedure: as §1, §2, §3, §4
In data set [1] the target is His-tagged Human KRAS^G12D (Homo sapiens (Human), UniProt P01116, G12D). The data set is described as follows: HTRF KRAS G12D GTP binding assay. The settings on record: displacement of GTP-Red tracer. The procedure: KRAS^G12D was used in this assay.
Sequence of His-tagged Human KRAS^G12D (P01116-2 other isoform, or with tags, fused parts or gaps G12D): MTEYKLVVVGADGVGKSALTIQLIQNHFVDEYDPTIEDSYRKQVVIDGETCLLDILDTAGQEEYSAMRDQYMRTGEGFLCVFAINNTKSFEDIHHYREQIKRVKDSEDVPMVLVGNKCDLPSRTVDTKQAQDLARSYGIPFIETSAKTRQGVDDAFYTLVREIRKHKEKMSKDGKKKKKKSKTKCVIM
The ability of a test compound to bind to KRAS^G12D was measured by using an HTRF KRAS^G12D GTP Binding Kit (Cisbio, 63ADK000CB27PEG). […] 5 μL of compound solution was added to each well after serial dilution, followed by addition of 5 μL of GDP (50 nM) solution. After 30 minutes incubation at room temperature, 1×6His Eu cryptate antibody solution and GTP-Red tracer were added to the plate, then incubated for another 30 minutes. The HTRF signal was measured with a VICTOR Nivo multimode plate reader according to the manufacturer's instructions. The percent inhibition was calculated using the following formula: […]
(where the “Maximum Signal” are wells containing DMSO without inhibitor; the “Minimum Signal” are wells containing reference inhibitory component (GDP); the “Test compound signal” are wells containing test compound (inhibitor) at established concentrations).
IC50 was determined by fitting percent inhibition at each inhibitor concentration to the four-parameter nonlinear logistic equation using GraphPad Prism.
For orientation: TR-FRET usually uses a lanthanide donor and a delayed reading to cut background.

Data set [2] can be described thus: Microsomal stability assay, mouse liver microsomes. In kind it is in vitro ADME. The settings on record: CD-1, pooled mouse liver microsomes, 0.5 mg/mL protein. On the procedure: (§5) Test results from this assay were used to determine the metabolic liabilities of test compounds and allow focus on the improvement of drug candidates through structure-activity relationships. Pooled mouse/rat/human liver microsomes were used for this assay
(§6) In vitro mouse (CD-1, BioIVT)/rat (SD, RILD)/human (Corning) liver microsomal suspensions at 0.5 mg/mL protein and 1.3 mM NADPH, 3.3 mM MgCl2 were pre incubated at 37° C. for 3 mins prior to addition of 0.1 mM test compound solution to give a final incubation concentration of 1 μM. Samples were incubated for 0, 15, 30, 60 minutes at 37° C. on a shaker (the positive control substance was cultured for 0 or 60 minutes). At the end of each incubation time both incubated and control samples were quenched with ice-cold stop solution containing internal standard. All samples were mixed by a plate shaker at 800 rpm for 5 minutes, then centrifuged at 4100 rpm for 15 minutes at 4° C. to precipitate protein. Supernatant was transferred to another 96-well plate, dilution solution was added to each supernatant well, and then each bioanalysis plate was sealed. The samples were mixed by plate shaker at 800 rpm for 5 minutes and then centrifuged at 4° C., 4100 rpm for 5 minutes. All samples were stored at 4° C. before LC-MS/MS analysis.
(§7) The peak area ratio was converted to the remaining percentages (% Remaining) using the following formula: […]
(§8) where % Remaining is the compound ratio (compound peak area/internal standard peak area) as a percentage of the 0 minute time point.
(§9) The ln remaining percent of test articles were plotted against time and the gradient of the line determined; the gradient was converted to elimination rate constant by using the following formula:
(§10) Elimination rate constant(ke)=−gradient
(§11) Half time (T1/2) was determined using following formula: […]
(§12) Hepatic intrinsic clearance (CLint(liver)) was determined by using the following formulas: […]
(§13) The Intrinsic clearance of selected compounds is depicted in Table 6.
For orientation: Liver microsomes are vesicles of endoplasmic reticulum, rich in cytochrome P450 enzymes.

Data set [3] can be described thus: Microsomal stability assay, rat liver microsomes. It counts as in vitro ADME. The settings on record: SD, pooled rat liver microsomes, 0.5 mg/mL protein. On the procedure:
as §5, §6, §7, §8, §9, §10, §11, §12, §13

The nature of data set [4]: Microsomal stability assay, human liver microsomes. It counts as in vitro ADME. The settings on record: pooled human liver microsomes, 0.5 mg/mL protein. On the procedure: as §5, §6, §7, §8, §9, §10, §11, §12, §13
The next data set has as its system AsPC-1. Nature of the data set: Cell proliferation assay (CellTiterGlo), AsPC-1. As to conditions: Homo sapiens, ASPC1, AsPC-1, 72 hours. In kind it is cell-based. The procedure: as §1, §2, §3, §4

With `CCc1c(F)ccc2cc(O)cc(-c3ncc4c(N5CCC[C@H]5CO)nc(OC[C@@]56CCCN5C[C@H](F)C6)nc4c3F)c12` [Compound 3], the IC50 came to 1570 nM with GP2D, 1660 nM with NCI-H358, 1080 nM in the data set with NCI-H727 and 1780 nM in the data set on MKN-1.
For the molecule `CCc1c(F)ccc2cc(O)cc(-c3ncc4c(N5C[C@H](O)C[C@H]5CO)nc(OC[C@@]56CCCN5C[C@H](F)C6)nc4c3F)c12` [Compound 2], the IC50 in data set [1] is 185 nM; with GP2D it was 1320 nM; in the data set on NCI-H358, 6320 nM; with NCI-H727, greater than 10000 nM; with MKN-1 it was greater than 10000 nM.
Take `CCc1c(F)ccc2cc(O)cc(-c3ncc4c(N5CCCC6(CCO6)C5)nc(OCC5(CN6CCOCC6)CC5)nc4c3F)c12` (stereo not drawn) [Compound 2a]: in data set [1], the IC50 was 18.8 nM. The CLint scaled at 1 μM in [2] is 2630 mL/min/kg; in data set [3] it was 887 mL/min/kg; in data set [4] it was 402 mL/min/kg.
In the case of `CCc1c(F)ccc2cc(O)cc(-c3ncc4c(N5CCC[C@]6(CCO6)C5)nc(OCC5(CN6CCCCC6)CC5)nc4c3F)c12` [Compound 9a], the IC50 in data set [1] turned out to be 7.9 nM; in the data set with AsPC-1, 20.1 nM; with GP2D, 1.6 nM; in the data set with NCI-H358, 18.5 nM; with NCI-H727, 15 nM.
For the molecule `CCc1c(F)ccc2cc(O)cc(-c3ncc4c(N5CCCC6(CCO6)C5)nc(OCC5(CN(C)C)CC5)nc4c3F)c12` (stereo not drawn) [Compound 73], the half-maximal inhibitory concentration (IC50) in data set [1] was found to be 10.7 nM. Further, the CLint scaled at 1 μM was determined as 361 mL/min/kg in data set [2], 51.1 mL/min/kg in data set [3] and 32.4 mL/min/kg in data set [4].
As to `CCc1c(F)ccc2cc(O)cc(-c3ncc4c(N5CCC[C@@]6(CCO6)C5)nc(OC[C@@]56CCCN5C[C@H](F)C6)nc4c3F)c12` [Compound 67], the CLint scaled at 1 μM amounted to 1280 mL/min/kg in data set [2], 288 mL/min/kg in data set [3] and 83.5 mL/min/kg in [4].
With `CCc1c(F)ccc2cc(O)cc(-c3ncc4c(N5CCC[C@H]5C(=O)OC)nc(OC[C@@]56CCCN5C[C@H](F)C6)nc4c3F)c12` [Compound 7], the IC50 in data set [1] is greater than 1000 nM; in the data set on NCI-H358 it was 7980 nM; in the data set on NCI-H727 it was 5310 nM; in the data set on MKN-1 it was greater than 10000 nM.
For `CCc1c(F)ccc2cc(O)cc(-c3ncc4c(N5CCC[C@]6(CCO6)C5)nc(OCC5(CN(CC)CC)CC5)nc4c3F)c12` [Compound 27a], the IC50 stood at 12.7 nM in data set [1]; 32 nM with AsPC-1; 3.07 nM with GP2D; 40.5 nM in the data set on NCI-H358; 24.8 nM in the data set on NCI-H727.
As for `CCc1c(F)ccc2cc(O)cc(-c3ncc4c(N5CC[C@@H](O)C5)nc(OC[C@@]56CCCN5C[C@H](F)C6)nc4c3F)c12` [Compound 1], the IC50 in [1] is 261 nM; in the data set on GP2D it was 4220 nM; in the data set on NCI-H358, 3210 nM; in the data set with NCI-H727, 1870 nM; in the data set on MKN-1, 4090 nM.
`CCc1c(F)ccc2cc(O)cc(-c3ncc4c(N5CCC[C@]6(CCO6)C5)nc(OC[C@@]56CCCN5C[C@H](F)C6)nc4c3F)c12` [Compound 68]: the CLint scaled at 1 μM was 2270 mL/min/kg in data set [2], 311 mL/min/kg in data set [3] and 124 mL/min/kg in data set [4].
As to `CCc1c(F)ccc2cc(O)cc(-c3ncc4c(N5C[C@H](O)C[C@H]5C(=O)OC)nc(OC[C@@]56CCCN5C[C@H](F)C6)nc4c3F)c12` [Compound 4], the IC50 in data set [1] was greater than 1000 nM; in the data set on GP2D, 1630 nM; with NCI-H358, 6600 nM; with NCI-H727 it was 4040 nM; in the data set on MKN-1 it was 7880 nM.
Turning to `CCc1c(F)ccc2cc(O)cc(-c3ncc4c(N5CCC[C@H]5C(N)=O)nc(OC[C@@]56CCCN5C[C@H](F)C6)nc4c3F)c12` [Compound 6], the IC50 in [1] is 1390 nM; in the data set on NCI-H358, greater than 10000 nM; in the data set on NCI-H727 it was greater than 10000 nM; with MKN-1, greater than 10000 nM.
For `CCc1c(F)ccc2cc(O)cc(-c3ncc4c(N5CCC[C@]6(CCO6)C5)nc(OCC5(CN6CCCC6)CC5)nc4c3F)c12` [Compound 10a], the IC50 in data set [1] was determined as 6.9 nM; with AsPC-1, 16 nM; in the data set with GP2D, 1.8 nM; in the data set with NCI-H358 it was 18.7 nM; in the data set with NCI-H727 it was 17 nM. Moreover, the CLint scaled at 1 μM was found to be 671 mL/min/kg in data set [2], 46.4 mL/min/kg in data set [3] and 42.5 mL/min/kg in [4].
`CCc1c(F)ccc2cc(O)cc(-c3ccc4c(N5CCC[C@]6(CCO6)C5)nc(OCC5(CN(C)C)CC5)nc4c3F)c12` [Compound 15a] displayed an IC50 in data set [1] of 19.6 nM. The intrinsic clearance (CLint scaled) at 1 μM in data set [2] stood at 371 mL/min/kg; in data set [3], 52.9 mL/min/kg; in data set [4], 31.8 mL/min/kg.
As for `CCc1c(F)ccc2cc(O)cc(-c3ncc4c(N5CCC[C@]6(CCO6)C5)nc(OCC(C)(C)CN(C)C)nc4c3F)c12` [Compound 26a], the IC50 in data set [1] was determined as 13.3 nM; with AsPC-1, 30.8 nM; in the data set with GP2D, 4.5 nM; in the data set with NCI-H358 it was 98.5 nM; with NCI-H727 it was 37.4 nM.
In the case of `CCc1c(F)ccc2cc(O)cc(-c3ncc4c(N5CCC[C@]6(CCO6)C5)nc(OCC5(CN(C)C)CC5)nc4c3F)c12` [Compound 34a], the half-inhibitory concentration (IC50) in data set [1] came out at 3.1 nM; with AsPC-1, 21.6 nM; with GP2D it was 1.4 nM; in the data set with NCI-H358 it was 23.7 nM; with NCI-H727, 13.7 nM. Further, the CLint scaled at 1 μM in data set [2] is 255 mL/min/kg; in [3], 29.2 mL/min/kg; in [4] it was 26.3 mL/min/kg.
Regarding `CCc1c(F)ccc2cc(O)cc(-c3ncc4c(N5CCC[C@]6(CCO6)C5)nc(OCC5(CN6CCC(F)CC6)CC5)nc4c3F)c12` [Compound 29a], the IC50 in [1] turned out to be 4.3 nM; in the data set with AsPC-1, 25 nM; with GP2D it was 2.3 nM; in the data set on NCI-H358 it was 25.1 nM; with NCI-H727 it was 14.7 nM. In addition, the CLint scaled at 1 μM in [2] came to 1040 mL/min/kg; in data set [3], 410 mL/min/kg; in data set [4], 181 mL/min/kg.

Usually IC50 stands for the concentration at which inhibition is half-maximal. A high value points to weaker potency. The CLint scaled is the capacity of the preparation to metabolise the compound, expressed as a volume cleared per time.
